Experimental data taken from patent US20230257396A1, “MACROCYCLES AND THEIR USE” (BLOSSOMHILL THERAPEUTICS, INC., priority 2020, published 2023).

What was measured:
Assay in all cases: KINOMEscan kinase binding assay (Eurofins/DiscoveRx), % Ctrl
Conditions in all cases: 1 μM
[1] = target: T1, kinases (Homo sapiens, UniProt P09619)
T1 construct: purchased Eurofins/DiscoveRx; host or cells: E. coli BL21-derived host (T7 phage display) for most kinases; HEK-293 for the rest
Method in brief: (§1)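 Competition binding, 1 h RT: phage-tagged or HEK-293-expressed DNA-tagged kinase + immobilized ligand + compound. Eluate kinase by qPCR. % Ctrl = (test − positive ctrl)/(negative ctrl − positive ctrl) × 100; lower means stronger binding.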

[2] = target: T2, kinases (Homo sapiens, UniProt P10721)
T2 construct: purchased Eurofins/DiscoveRx; host or cells: E. coli BL21-derived host (T7 phage display) for most kinases; HEK-293 for the rest
Method in brief: as §1

[3] = target: T3, kinases (Homo sapiens, UniProt P00519, F317I)
T3 construct: purchased Eurofins/DiscoveRx; host or cells: E. coli BL21-derived host (T7 phage display) for most kinases; HEK-293 for the rest
Method in brief: as §1

[4] = target: T4, kinases (Homo sapiens, UniProt P17948)
T4 construct: purchased Eurofins/DiscoveRx; host or cells: E. coli BL21-derived host (T7 phage display) for most kinases; HEK-293 for the rest
Method in brief: as §1

[5] = target: T5, kinases (Homo sapiens, UniProt P10721, D816V)
T5 construct: purchased Eurofins/DiscoveRx; host or cells: E. coli BL21-derived host (T7 phage display) for most kinases; HEK-293 for the rest
Method in brief: as §1

[6] = target: T6, kinases (Homo sapiens, UniProt P00533, L858R)
T6 construct: purchased Eurofins/DiscoveRx; host or cells: E. coli BL21-derived host (T7 phage display) for most kinases; HEK-293 for the rest
Method in brief: as §1

[7] = target: T7, kinases (Homo sapiens, UniProt P10721, V559D)
T7 construct: purchased Eurofins/DiscoveRx; host or cells: E. coli BL21-derived host (T7 phage display) for most kinases; HEK-293 for the rest
Method in brief: as §1

[8] = target: T8, kinases (Homo sapiens, UniProt P00533, DEL752-759)
T8 construct: purchased Eurofins/DiscoveRx; host or cells: E. coli BL21-derived host (T7 phage display) for most kinases; HEK-293 for the rest
Method in brief: as §1

[9] = target: T9, kinases (Homo sapiens, UniProt P36888, D835H)
T9 construct: purchased Eurofins/DiscoveRx; host or cells: E. coli BL21-derived host (T7 phage display) for most kinases; HEK-293 for the rest
T9 sequence (P36888 27-993 D835H): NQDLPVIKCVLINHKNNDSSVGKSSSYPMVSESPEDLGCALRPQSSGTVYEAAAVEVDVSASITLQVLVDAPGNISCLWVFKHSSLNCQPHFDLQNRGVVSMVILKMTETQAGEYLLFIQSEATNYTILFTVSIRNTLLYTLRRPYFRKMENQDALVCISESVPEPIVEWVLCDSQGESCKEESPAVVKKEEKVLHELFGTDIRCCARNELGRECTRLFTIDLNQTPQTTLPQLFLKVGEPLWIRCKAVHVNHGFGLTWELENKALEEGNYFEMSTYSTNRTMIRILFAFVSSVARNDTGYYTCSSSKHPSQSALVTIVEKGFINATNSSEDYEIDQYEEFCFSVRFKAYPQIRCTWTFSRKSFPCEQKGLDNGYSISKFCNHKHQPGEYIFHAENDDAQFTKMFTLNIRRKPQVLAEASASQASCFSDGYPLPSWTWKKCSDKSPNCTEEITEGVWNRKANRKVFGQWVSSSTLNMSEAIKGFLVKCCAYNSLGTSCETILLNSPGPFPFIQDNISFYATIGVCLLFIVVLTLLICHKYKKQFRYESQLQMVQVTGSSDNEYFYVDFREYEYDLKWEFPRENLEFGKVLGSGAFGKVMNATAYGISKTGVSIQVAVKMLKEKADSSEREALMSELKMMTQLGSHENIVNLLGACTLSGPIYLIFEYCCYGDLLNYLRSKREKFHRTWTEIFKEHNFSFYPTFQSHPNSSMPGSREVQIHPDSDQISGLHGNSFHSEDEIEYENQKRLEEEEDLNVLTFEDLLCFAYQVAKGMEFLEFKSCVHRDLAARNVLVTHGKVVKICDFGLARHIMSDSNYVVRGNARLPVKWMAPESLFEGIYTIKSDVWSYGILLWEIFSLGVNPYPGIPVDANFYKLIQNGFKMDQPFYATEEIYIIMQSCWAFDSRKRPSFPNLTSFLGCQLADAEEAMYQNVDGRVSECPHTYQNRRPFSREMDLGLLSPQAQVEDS
Method in brief: as §1

[10] = target: T10, kinases (Homo sapiens, UniProt P00533, G719C)
T10 construct: purchased Eurofins/DiscoveRx; host or cells: E. coli BL21-derived host (T7 phage display) for most kinases; HEK-293 for the rest
Method in brief: as §1

[11] = target: T11, kinases (Homo sapiens, UniProt P35916)
T11 construct: purchased Eurofins/DiscoveRx; host or cells: E. coli BL21-derived host (T7 phage display) for most kinases; HEK-293 for the rest
Method in brief: as §1

[12] = target: T12, kinases (Homo sapiens, UniProt P16234)
T12 construct: purchased Eurofins/DiscoveRx; host or cells: E. coli BL21-derived host (T7 phage display) for most kinases; HEK-293 for the rest
Method in brief: as §1

[13] = target: T13, kinases (Homo sapiens, UniProt P00519)
T13 construct: purchased Eurofins/DiscoveRx; host or cells: E. coli BL21-derived host (T7 phage display) for most kinases; HEK-293 for the rest
Method in brief: as §1

[14] = target ABL1(F317I)-nonphosphorylated
[15] = target ABL1(F317I)-phosphorylated

T5 sequence (P10721 26-976 D816V): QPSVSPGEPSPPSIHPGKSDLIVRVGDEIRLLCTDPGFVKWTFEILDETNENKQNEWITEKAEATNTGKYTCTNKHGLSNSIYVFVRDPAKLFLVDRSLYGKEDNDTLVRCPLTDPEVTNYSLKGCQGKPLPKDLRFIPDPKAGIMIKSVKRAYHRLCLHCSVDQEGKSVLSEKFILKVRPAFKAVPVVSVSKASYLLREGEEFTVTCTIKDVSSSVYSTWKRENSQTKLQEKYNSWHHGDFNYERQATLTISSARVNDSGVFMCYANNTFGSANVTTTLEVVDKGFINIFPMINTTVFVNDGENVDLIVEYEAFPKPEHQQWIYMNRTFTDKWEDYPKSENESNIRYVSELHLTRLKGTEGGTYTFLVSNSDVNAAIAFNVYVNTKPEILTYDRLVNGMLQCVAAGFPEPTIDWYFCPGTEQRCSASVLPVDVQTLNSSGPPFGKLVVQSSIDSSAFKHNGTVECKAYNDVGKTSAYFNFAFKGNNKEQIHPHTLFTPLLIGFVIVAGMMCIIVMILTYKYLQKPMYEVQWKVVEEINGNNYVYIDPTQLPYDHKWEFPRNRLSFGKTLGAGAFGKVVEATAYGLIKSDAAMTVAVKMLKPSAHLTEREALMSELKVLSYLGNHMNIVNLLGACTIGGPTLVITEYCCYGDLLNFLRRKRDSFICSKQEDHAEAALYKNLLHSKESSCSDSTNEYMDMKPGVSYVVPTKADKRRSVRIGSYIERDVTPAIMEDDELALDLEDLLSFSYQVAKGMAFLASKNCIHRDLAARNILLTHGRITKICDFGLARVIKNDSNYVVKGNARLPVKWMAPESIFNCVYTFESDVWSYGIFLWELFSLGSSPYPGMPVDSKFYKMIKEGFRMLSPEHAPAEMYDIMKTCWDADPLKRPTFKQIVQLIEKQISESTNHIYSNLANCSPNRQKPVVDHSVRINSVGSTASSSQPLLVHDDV
T11 sequence (P35916 25-1363): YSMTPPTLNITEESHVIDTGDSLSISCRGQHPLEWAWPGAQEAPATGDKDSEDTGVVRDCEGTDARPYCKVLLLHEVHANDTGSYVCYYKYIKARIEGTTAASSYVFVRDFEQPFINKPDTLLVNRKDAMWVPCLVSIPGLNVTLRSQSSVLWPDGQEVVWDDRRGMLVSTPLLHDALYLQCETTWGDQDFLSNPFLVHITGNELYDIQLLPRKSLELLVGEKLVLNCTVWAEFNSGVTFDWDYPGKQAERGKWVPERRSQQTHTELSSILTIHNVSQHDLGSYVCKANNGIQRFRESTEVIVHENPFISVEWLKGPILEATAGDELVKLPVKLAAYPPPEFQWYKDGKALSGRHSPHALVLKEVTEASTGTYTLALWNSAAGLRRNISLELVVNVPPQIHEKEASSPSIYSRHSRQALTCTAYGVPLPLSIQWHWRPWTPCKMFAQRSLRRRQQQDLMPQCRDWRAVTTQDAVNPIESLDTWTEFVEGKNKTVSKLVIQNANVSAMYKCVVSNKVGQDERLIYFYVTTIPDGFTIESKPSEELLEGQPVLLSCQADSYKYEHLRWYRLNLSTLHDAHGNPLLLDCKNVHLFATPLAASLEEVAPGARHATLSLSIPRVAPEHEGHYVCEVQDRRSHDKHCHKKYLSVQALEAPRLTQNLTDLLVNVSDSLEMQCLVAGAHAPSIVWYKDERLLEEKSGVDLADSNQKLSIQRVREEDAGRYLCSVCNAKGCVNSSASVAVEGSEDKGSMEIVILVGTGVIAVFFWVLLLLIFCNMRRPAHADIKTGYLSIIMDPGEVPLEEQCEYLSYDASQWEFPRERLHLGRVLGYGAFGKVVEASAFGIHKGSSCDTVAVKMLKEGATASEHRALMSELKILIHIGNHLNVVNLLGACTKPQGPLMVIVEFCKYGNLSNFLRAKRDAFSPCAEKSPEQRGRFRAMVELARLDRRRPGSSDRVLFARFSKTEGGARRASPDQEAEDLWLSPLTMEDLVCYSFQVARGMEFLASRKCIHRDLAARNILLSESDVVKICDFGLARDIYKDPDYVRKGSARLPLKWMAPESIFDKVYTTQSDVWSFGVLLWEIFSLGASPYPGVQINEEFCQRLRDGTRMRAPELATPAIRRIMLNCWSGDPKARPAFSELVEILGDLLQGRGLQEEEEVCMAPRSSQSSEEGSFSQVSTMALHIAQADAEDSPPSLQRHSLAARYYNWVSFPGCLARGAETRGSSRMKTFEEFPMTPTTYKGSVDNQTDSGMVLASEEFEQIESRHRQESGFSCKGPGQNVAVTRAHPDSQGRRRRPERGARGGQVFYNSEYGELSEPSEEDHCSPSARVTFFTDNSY
T4 sequence (P17948 27-1338): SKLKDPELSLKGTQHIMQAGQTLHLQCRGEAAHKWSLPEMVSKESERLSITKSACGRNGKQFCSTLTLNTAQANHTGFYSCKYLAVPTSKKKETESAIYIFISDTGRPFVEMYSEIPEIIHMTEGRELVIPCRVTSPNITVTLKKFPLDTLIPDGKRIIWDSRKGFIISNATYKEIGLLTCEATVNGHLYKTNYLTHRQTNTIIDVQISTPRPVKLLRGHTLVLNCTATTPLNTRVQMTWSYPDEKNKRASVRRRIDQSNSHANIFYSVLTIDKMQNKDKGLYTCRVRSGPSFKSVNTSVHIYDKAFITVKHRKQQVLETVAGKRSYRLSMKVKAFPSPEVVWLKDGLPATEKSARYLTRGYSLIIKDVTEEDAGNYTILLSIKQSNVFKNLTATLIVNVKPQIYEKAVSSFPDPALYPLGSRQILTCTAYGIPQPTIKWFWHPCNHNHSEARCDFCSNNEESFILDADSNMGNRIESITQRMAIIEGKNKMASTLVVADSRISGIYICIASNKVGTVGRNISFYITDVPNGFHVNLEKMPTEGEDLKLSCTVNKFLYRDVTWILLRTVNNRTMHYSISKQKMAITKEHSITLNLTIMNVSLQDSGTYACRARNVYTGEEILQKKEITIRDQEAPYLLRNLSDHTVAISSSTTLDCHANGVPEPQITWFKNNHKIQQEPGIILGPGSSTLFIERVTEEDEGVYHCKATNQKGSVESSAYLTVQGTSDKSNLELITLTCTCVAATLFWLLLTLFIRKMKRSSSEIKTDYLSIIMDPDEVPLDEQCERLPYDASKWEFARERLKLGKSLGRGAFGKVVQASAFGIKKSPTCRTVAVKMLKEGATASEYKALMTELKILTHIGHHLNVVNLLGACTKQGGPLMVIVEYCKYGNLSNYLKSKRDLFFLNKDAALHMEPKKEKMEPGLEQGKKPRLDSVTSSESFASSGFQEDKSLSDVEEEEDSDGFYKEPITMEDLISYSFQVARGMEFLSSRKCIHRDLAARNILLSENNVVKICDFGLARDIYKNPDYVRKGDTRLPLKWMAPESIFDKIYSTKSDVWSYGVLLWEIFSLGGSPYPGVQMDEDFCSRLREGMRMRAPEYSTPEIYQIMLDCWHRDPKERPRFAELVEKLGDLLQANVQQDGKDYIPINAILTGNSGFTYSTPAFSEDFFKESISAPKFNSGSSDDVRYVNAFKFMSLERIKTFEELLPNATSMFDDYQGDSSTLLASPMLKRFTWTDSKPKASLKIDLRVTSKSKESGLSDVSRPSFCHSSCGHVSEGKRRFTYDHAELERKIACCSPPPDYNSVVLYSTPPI
T12 sequence (P16234 24-1089): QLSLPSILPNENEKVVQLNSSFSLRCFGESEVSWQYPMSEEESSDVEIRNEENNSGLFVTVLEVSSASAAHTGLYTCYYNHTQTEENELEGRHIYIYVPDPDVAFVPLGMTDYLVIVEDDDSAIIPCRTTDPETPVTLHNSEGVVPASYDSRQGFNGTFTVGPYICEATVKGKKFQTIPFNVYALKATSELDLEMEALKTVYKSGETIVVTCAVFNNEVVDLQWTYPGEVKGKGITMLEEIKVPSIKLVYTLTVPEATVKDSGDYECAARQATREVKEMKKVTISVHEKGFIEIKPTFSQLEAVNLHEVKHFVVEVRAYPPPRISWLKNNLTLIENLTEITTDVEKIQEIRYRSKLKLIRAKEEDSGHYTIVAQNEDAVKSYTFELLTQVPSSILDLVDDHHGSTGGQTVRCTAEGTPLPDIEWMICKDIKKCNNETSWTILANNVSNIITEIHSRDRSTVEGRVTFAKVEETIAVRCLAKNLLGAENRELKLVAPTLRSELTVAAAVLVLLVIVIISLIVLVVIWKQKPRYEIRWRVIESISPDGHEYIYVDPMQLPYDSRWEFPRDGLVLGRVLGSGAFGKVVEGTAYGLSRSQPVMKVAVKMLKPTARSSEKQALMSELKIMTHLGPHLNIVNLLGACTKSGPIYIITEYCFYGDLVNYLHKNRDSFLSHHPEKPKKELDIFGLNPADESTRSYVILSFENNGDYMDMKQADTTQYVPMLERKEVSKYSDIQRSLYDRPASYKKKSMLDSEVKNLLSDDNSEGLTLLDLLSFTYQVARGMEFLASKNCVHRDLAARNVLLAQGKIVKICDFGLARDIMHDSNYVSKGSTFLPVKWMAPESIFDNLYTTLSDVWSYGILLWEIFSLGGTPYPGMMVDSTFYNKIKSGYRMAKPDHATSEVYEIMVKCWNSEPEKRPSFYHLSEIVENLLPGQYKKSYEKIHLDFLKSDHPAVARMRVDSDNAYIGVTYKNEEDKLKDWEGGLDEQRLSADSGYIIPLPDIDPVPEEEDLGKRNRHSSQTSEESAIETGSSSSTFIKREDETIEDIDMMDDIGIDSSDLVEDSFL
T2 sequence (P10721 26-976): as the sequence (P10721 26-976 D816V) above, with V791D counted along it
T7 sequence (P10721 26-976 V559D): as the sequence (P10721 26-976 D816V) above, with V534D, V791D counted along it

Row | SMILES | % Ctrl, PDGFRB ([1]; PDGFRB) [% Ctrl] | % Ctrl, KIT ([2]; KIT) [% Ctrl] | % Ctrl, KIT-autoinhibited ([2]; KIT-autoinhibited) [% Ctrl] | % Ctrl, ABL1(F317I)-nonphosphorylated ([3]; ABL1(F317I)-nonphosphorylated) [% Ctrl] | % Ctrl, ABL1(F317I)-phosphorylated ([3]; ABL1(F317I)-phosphorylated) [% Ctrl] | % Ctrl, FLT1 ([4]; FLT1) [% Ctrl] | % Ctrl, KIT(D816V) ([5]; KIT(D816V)) [% Ctrl] | % Ctrl, EGFR(L858R) ([6]; EGFR(L858R)) [% Ctrl] | % Ctrl, KIT(V559D) ([7]; KIT(V559D)) [% Ctrl] | % Ctrl, EGFR(S752-I759del) ([8]; EGFR(S752-I759del)) [% Ctrl] | % Ctrl, FLT3(D835H) ([9]; FLT3(D835H)) [% Ctrl] | % Ctrl, EGFR(G719C) ([10]; EGFR(G719C)) [% Ctrl] | % Ctrl, FLT4 ([11]; FLT4) [% Ctrl] | % Ctrl, PDGFRA ([12]; PDGFRA) [% Ctrl] | % Ctrl, ABL1-nonphosphorylated ([13]; ABL1-nonphosphorylated) [% Ctrl] | % Ctrl, ABL1-phosphorylated ([13]; ABL1-phosphorylated) [% Ctrl] | % Ctrl, PDGFRB ([1]; target PDGFRB) [% Ctrl] | % Ctrl, KIT-autoinhibited ([2]; target KIT-autoinhibited) [% Ctrl] | % Ctrl, KIT ([2]; target KIT) [% Ctrl] | % Ctrl, ABL1(F317I)-nonphosphorylated [3, 14] [% Ctrl] | also measured
1 | Cc1nn(C)c2c1-c1ccc3c(c1)/C(=C/c1[nH]ccc1C(=O)N(C)CCCO2)C(=O)N3 [Ex. 150, [3a(4)Z]-9,14,16-trimethyl-10,11,13,14-tetrahydro-2H-1,17-(ethanediylidene)pyrazolo[4,3-m]dipyrrolo[3,2-f:3′,4′-i][1,4]oxazacyclopentadecine-3,8(5H,9H)-dione] |  |  |  |  |  |  |  |  |  |  |  |  |  |  |  |  | 96 | 100 | 97 | 95 | % Ctrl, ABL1(F317I)-phosphorylated [3, 15]: 88 % Ctrl; % Ctrl, FLT1 ([4]; target FLT1): 100 % Ctrl; % Ctrl, KIT(D816V) ([5]; target KIT(D816V)): 89 % Ctrl; % Ctrl, EGFR(L858R) ([6]; target EGFR(L858R)): 77 % Ctrl; % Ctrl, KIT(V559D) ([7]; target KIT(V559D)): 88 % Ctrl; % Ctrl, EGFR(S752-I759del) ([8]; target EGFR(S752-I759del)): 100 % Ctrl; % Ctrl, FLT3(D835H) ([9]; target FLT3(D835H)): 62 % Ctrl; % Ctrl, EGFR(G719C) ([10]; target EGFR(G719C)): 92 % Ctrl; % Ctrl, FLT4 ([11]; target FLT4): 95 % Ctrl; % Ctrl, PDGFRA ([12]; target PDGFRA): 92 % Ctrl; % Ctrl, ABL1-nonphosphorylated ([13]; target ABL1-nonphosphorylated): 82 % Ctrl; % Ctrl, ABL1-phosphorylated ([13]; target ABL1-phosphorylated): 82 % Ctrl
2 | Cc1cc2c([nH]1)/C=C1\C(=O)Nc3ccc(cc31)-c1ccnn1CCOCCN(C)C2=O [Ex. 41, [19a(20)Z]-2,5-dimethyl-6,7,9,10-tetrahydro-1H-15,17-(ethanediylidene)pyrazolo[1,5-d]dipyrrolo[3,4-h:2′,3′-k][1,4,14]oxadiazacyclohexadecine-4,19(5H,18H)-dione] | 5.5 | 58 | 78 | 54 | 75 | 81 | 38 | 93 | 64 | 89 | 5.2 | 88 | 62 | 19 | 7.1 | 56 |  |  |  |  | 
3 | Cc1cc2c([nH]1)/C=C1\C(=O)Nc3ccc(cc31)-c1ccnn1CCOCCNC2=O [Ex.39, [19a(20)Z]-2-methyl-6,7,9,10-tetrahydro-1H-15,17-(ethanediylidene)pyrazolo[1,5-d]dipyrrolo[3,4-h:2′,3′-k][1,4,14]oxadiazacyclohexadecine-4,19(5H,18H)-dione] | 91 | 90 | 86 | 100 | 64 | 95 | 91 | 64 | 99 | 80 | 85 | 70 | 98 | 89 | 73 | 78 |  |  |  |  | 

The next lines start with results.

Row | % Ctrl, PDGFRB ([1]; PDGFRB) [% Ctrl] | % Ctrl, KIT ([2]; KIT) [% Ctrl] | % Ctrl, KIT-autoinhibited ([2]; KIT-autoinhibited) [% Ctrl] | % Ctrl, ABL1(F317I)-nonphosphorylated ([3]; ABL1(F317I)-nonphosphorylated) [% Ctrl] | % Ctrl, ABL1(F317I)-phosphorylated ([3]; ABL1(F317I)-phosphorylated) [% Ctrl] | % Ctrl, FLT1 ([4]; FLT1) [% Ctrl] | % Ctrl, KIT(D816V) ([5]; KIT(D816V)) [% Ctrl] | % Ctrl, EGFR(L858R) ([6]; EGFR(L858R)) [% Ctrl] | % Ctrl, KIT(V559D) ([7]; KIT(V559D)) [% Ctrl] | % Ctrl, EGFR(S752-I759del) ([8]; EGFR(S752-I759del)) [% Ctrl] | % Ctrl, FLT3(D835H) ([9]; FLT3(D835H)) [% Ctrl] | % Ctrl, EGFR(G719C) ([10]; EGFR(G719C)) [% Ctrl] | % Ctrl, FLT4 ([11]; FLT4) [% Ctrl] | % Ctrl, PDGFRA ([12]; PDGFRA) [% Ctrl] | % Ctrl, ABL1-nonphosphorylated ([13]; ABL1-nonphosphorylated) [% Ctrl] | % Ctrl, ABL1-phosphorylated ([13]; ABL1-phosphorylated) [% Ctrl] | % Ctrl, PDGFRB ([1]; target PDGFRB) [% Ctrl] | % Ctrl, KIT-autoinhibited ([2]; target KIT-autoinhibited) [% Ctrl] | % Ctrl, KIT ([2]; target KIT) [% Ctrl] | % Ctrl, ABL1(F317I)-nonphosphorylated [3, 14] [% Ctrl] | SMILES | also measured
4 | 38 | 49 | 83 | 78 | 66 | 97 | 36 | 90 | 36 | 95 | 32 | 90 | 100 | 56 | 36 | 25 |  |  |  |  | Cc1cc2c([nH]1)/C=C1\C(=O)Nc3cc(Cl)c(cc31)OCCO[C@@H](C(=O)N[C@@H]1CCNC1)CN(C)C2=O [Ex. 136, [7R,16a(17)Z]-19-chloro-2,5-dimethyl-4,16-dioxo-N-[(3R)-pyrrolidin-3-yl]-4,5,6,7,9,10,15,16-octahydro-1H-12,14-(ethanediylidene)dipyrrolo[3,2-i:3′,4′-l][1,4,7]dioxazacyclopentadecine-7-carboxamide] | 
5 |  |  |  |  |  |  |  |  |  |  |  |  |  |  |  |  | 95 | 96 | 90 | 86 | Cc1cc2c([nH]1)/C=C1\C(=O)Nc3cc(Cl)c(cc31)OCCO[C@@H](C(=O)N1CCN(C)CC1)CN(C)C2=O [Ex. 138, [7R,16a(17)Z]-19-chloro-2,5-dimethyl-7-(4-methylpipearazine-1-carbonyl)-6,7,9,10-tetrahydro-1H-12,14-(ethanediylidene)dipyrrolo[3,2-i:3′,4′-l][1,4,7]dioxazacyclopentadecine-4,16(5H,15H)-dione] | % Ctrl, ABL1(F317I)-phosphorylated [3, 15]: 100 % Ctrl; % Ctrl, FLT1 ([4]; target FLT1): 96 % Ctrl; % Ctrl, KIT(D816V) ([5]; target KIT(D816V)): 100 % Ctrl; % Ctrl, EGFR(L858R) ([6]; target EGFR(L858R)): 78 % Ctrl; % Ctrl, KIT(V559D) ([7]; target KIT(V559D)): 97 % Ctrl; % Ctrl, EGFR(S752-I759del) ([8]; target EGFR(S752-I759del)): 92 % Ctrl; % Ctrl, FLT3(D835H) ([9]; target FLT3(D835H)): 73 % Ctrl; % Ctrl, EGFR(G719C) ([10]; target EGFR(G719C)): 100 % Ctrl; % Ctrl, FLT4 ([11]; target FLT4): 97 % Ctrl; % Ctrl, PDGFRA ([12]; target PDGFRA): 75 % Ctrl; % Ctrl, ABL1-nonphosphorylated ([13]; target ABL1-nonphosphorylated): 79 % Ctrl; % Ctrl, ABL1-phosphorylated ([13]; target ABL1-phosphorylated): 100 % Ctrl
6 | 90 | 90 | 72 | 95 | 83 | 88 | 67 | 99 | 75 | 98 | 53 | 100 | 95 | 72 | 43 | 61 |  |  |  |  | Cc1cc2c([nH]1)/C=C1\C(=O)Nc3cc(Cl)c(cc31)OCCO[C@@H](C(=O)N(C)C)CN(C)C2=O [Ex. 137, [7R,16a(17)Z]-19-chloro-N,N,2,5-tetramethyl-4,16-dioxo-4,5,6,7,9,10,15,16-octahydro-1H-12,14-(ethanediylidene)dipyrrolo[3,2-i:3′,4′-l][1,4,7]dioxazacyclopentadecine-7-carboxamide] | 
